# Measurements published in PMC7355684 (Pharmaceutics, 2020).
# “Also recorded” adds a separate entry of the source. Like-named read-outs stand apart in the source and are kept apart here. Where a SMILES comes first, the peptide text is derived from it. Side-chain parts run from the residue outwards. The star is where a group is joined. Daunorubicin(13-NOCH2CO) = COc1cccc2c1C(=O)c1c(O)c3c(c(O)c1C2=O)C[C@@](O)(C(C)=NOCC(=O)*)C[C@@H]3O[C@H]1C[C@H](N)[C@H](O)[C@H](C)O1
# Assays:
# [1] = test system: A2058 cells; type: cell-based, human
# Protocol: (§1) EBC-1 and Colo-205 model cells have weak/negligible adherent properties, and A2058 cells could not produce constant cell index values. Therefore, a colorimetric assay (alamarBlue-assay) was chosen instead of the xCELLigence system to investigate the viability of these model cells treated with the conjugates. Due to the growth characteristics of NHDF cells, alamarBlue-assay was performed also on this cell line.
# (§2) The protocol for the alamarBlue-assay was similar to the method which was published earlier, with some minor modifications. Briefly, the cell seeding occurred on 96-well cell culture plates (Sarstedt AG, Nümbrecht, Germany) at 10^4 cells/well concentration. After a 24 h long culturing period, the treatment was carried out with the conjugates at 10^−4, 10^−5 and 10^−6 M final concentrations for 24, 48 and 72 h. In the next steps, the alamarBlue reagent (0.15 mg/mL, Sigma-Aldrich) dissolved in phosphate-buffered saline (PBS; pH = 7.2), was added to the wells. After 6 h incubation with the reagent, the fluorescence intensity of the samples was obtained by an LS-50B Luminescence Spectrometer (Perkin Elmer Ltd., Buckinghamshire, UK) or a Fluoroskan^TM FL Microplate Fluorometer and Luminometer (Thermo Scientific, Waltham, MA, USA) by using the following settings: λex = 560 nm and λem = 590 nm.
# (§3) Three parallels were performed per treatment group. In the case of controls, an equivalent volume of cell culture media was added to the cell. Fluorescence intensities of the samples treated with various concentrations of conjugates were expressed as a percentage of the fluorescence of control.
# [2] = test system: Colo-205 cells; type: cell-based, human
# Protocol: as §1, §2, §3
# [3] = test system: EBC-1 cells; type: cell-based, human
# Protocol: as §1, §2, §3
# [4] = test system: PANC-1 cells; assay: cells; type: cell-based, human
# Protocol: This measurement is based on the registration of electrical resistance (impedance, Z) in alternating current (AC) field. The living cells transplanted to the gold measuring electrodes are physically insulated by phospholipid bilayer that covers them. This instrumentally measurable property changes (decreases) in response to cellular cytotoxic agents. Our measurements were performed on xCELLigence single plate (ACEA Biosciences, San Diego, CA, USA) dedicated for impedimetric analysis of cellular samples at 37 °C and 5% CO2.
# During the initial phase of the experiments—the baseline recording—a special 96-well cell culture plate, E-plate (ACEA Biosciences), equipped with measuring electrodes, was pretreated with freshly prepared cell culture medium (for 60 min; sampling frequency: 1 min). Subsequently, PANC-1 cells were plated at a cell density of 10^4 cells/well. During the 24 h incubation, the cells evenly covered the electrodes at the bottom of the wells of the E-plate. The resulting confluent cell cultures were then treated with the test substances at the following final concentrations: 10^−6, 10^−5, 10^−4 M. Total treatment duration was 72 h and the sampling rate was 1 min (0–24 h); and then 15 min (48–72 h). In our measurements, three replicates were used, the control was the drug-free medium. […] The CI results were analyzed with xCELLigence RTCA 2.0 software and Origin Pro 8.0 software.
# [5] = Lysosomal degradation of conjugates by LC-MS; type: in vitro ADME; settings: rat liver lysosome homogenate, 0.2 M NaOAc pH 5.03, 0.025 μg/μL conjugate, 37 °C; for Time to complete lysosomal degradation: sampling up to 72 h
# Protocol: For the stability and metabolism studies of the conjugates, liquid chromatography–mass spectrometry (LC-MS) analyses were performed on a Q ExactiveTM Focus, high resolution and high mass accuracy, hybrid quadrupole-orbitrap mass spectrometer (Thermo Fisher Scientific, Bremen, Germany) using on-line UHPLC coupling. UHPLC separation was performed on a Dionex 3000 UHPLC system using a Supelco Ascentis C18 column (2.1 × 150 mm, 3 µm). Linear gradient elution (0 min 2% B, 1 min 2% B, 17 min 90% B) with eluent A (0.1% HCOOH in water, v/v) and eluent B (0.1% HCOOH in acetonitrile/water, 80:20, v/v) was used at a flow rate of 0.2 mL/min at 40 °C. High-resolution mass spectra were acquired in the 200–1600 m/z range. LC-MS data were analyzed by XcaliburTM software (Thermo Fisher Scientific) and with Origin Pro 8 (OriginLab Corp., Northampton, MA, USA).
# Conjugates were dissolved in distilled water in 2.5 μg/μL concentration followed by dilution with 0.2 M NaOAc solution (pH = 5.03) to 0.025 μg/μL. The lysosome-homogenate was prepared from rat liver and contained proteins in 16.6 μg/μL concentration. An aliquot (20 μL) of this stock solution was further diluted with […] 0.2 M NaOAc solution, therefore the final protein concentration was 0.83 μg/μL. To prepare the reaction mixture, 15 μL (0.83 μg/μL) lysosome homogenate was added to 500 μL (0.025 μg/μL) conjugate solution. Furthermore, a control reaction mixture was always prepared which contained 500 μL conjugate solution and 15 μL NaOAc solution only. The solutions were stirred on 600 rpm at 37 °C and samples (50 μL) were taken out at 0 min, 5 min, 15 min, 30 min, 1 h, 2 h, 6 h, 24 h, and 72 h. The enzymatic activity was quenched by adding 5 μL formic acid to the samples. After this procedure, samples were frozen immediately at −25 °C. Control samples were taken at 0 min, 15 min, 1 h, 6 h, 24 h and 72 h. Composition of the samples was determined by HPLC-MS as described above.
# [6] = lysosome-homogenate prepared from rat liver, in 0.2 M NaOAc solution (pH = 5.03); settings: 37 °C, up to 72 h
# [7] = alamarBlue fluorescence normalized to control wells, 10^-5 M, mean ± SD, n=3
# [8] = PANC-1, impedimetry, cell index normalized to control wells, 10^−5 M, mean ± SD, n = 3
compound,measurement,setting,value
"COc1cccc2c1C(=O)c1c(O)c3c(c(O)c1C2=O)C[C@@](O)(C(C)=NOCC(=O)N[C@@H](CO)C(=O)N[C@@H](CCCCN)C(=O)N[C@@H](C)C(=O)N[C@@H](C)C(=O)N[C@@H](CCCCN)C(=O)N[C@@H](CC(N)=O)C(=O)O)C[C@@H]3O[C@H]1C[C@H](N)[C@H](O)[C@H](C)O1 [conjugate 1, Dau=Aoa-SKAAKN-OH] ({Daunorubicin(13-NOCH2CO)}-SKAAKN-OH)","Viability (%) at 10-5 M concentration, after 72 h incubation, A2058",[1]; 1e-5 M,61.5 ± 2.7%
same,"Viability (%) at 10-5 M concentration, after 72 h incubation, Colo-205",[2]; 1e-5 M,50.7 ± 1.6%
same,"Viability (%) at 10-5 M concentration, after 72 h incubation, EBC-1",[3]; 1e-5 M,77.8 ± 1.0%
same,Viability after 24 h treatment at 10^−4 M (initial CI increase),"[4]; 24 h, 1e-4 M",224.1 ± 18.73%
same,"Viability (%) at 10^−5 M Concentration, After 72 h Incubation",[4]; 1e-5 M,112.5 ± 5.1%
"COc1cccc2c1C(=O)c1c(O)c3c(c(O)c1C2=O)C[C@@](O)(C(C)=NOCC(=O)N[C@@H](CCCCN)C(=O)N[C@@H](CO)C(=O)N[C@@H](CCCCN)C(=O)N[C@@H](C)C(=O)N[C@@H](C)C(=O)N[C@@H](CCCCN)C(=O)N[C@@H](CC(N)=O)C(=O)O)C[C@@H]3O[C@H]1C[C@H](N)[C@H](O)[C@H](C)O1 [conjugate 2, Dau=Aoa-KSKAAKN-OH] ({Daunorubicin(13-NOCH2CO)}-KSKAAKN-OH)",Speed of lysosomal degradation (in words),[5],very fast
"COc1cccc2c1C(=O)c1c(O)c3c(c(O)c1C2=O)C[C@@](O)(C(C)=NOCC(=O)NCC(=O)N[C@@H](Cc1ccccc1)C(=O)N[C@@H](CC(C)C)C(=O)NCC(=O)N[C@@H](CCCCN)C(=O)N[C@@H](CO)C(=O)N[C@@H](CCCCN)C(=O)N[C@@H](C)C(=O)N[C@@H](C)C(=O)N[C@@H](CCCCN)C(=O)N[C@@H](CC(N)=O)C(=O)O)C[C@@H]3O[C@H]1C[C@H](N)[C@H](O)[C@H](C)O1 [conjugate 3, Dau=Aoa-GFLG-KSKAAKN-OH] ({Daunorubicin(13-NOCH2CO)}-GFLGKSKAAKN-OH)","Viability (%) at 10-5 M concentration, after 72 h incubation, A2058",[1]; [7],79.4 ± 17.6%
same,"Viability (%) at 10-5 M concentration, after 72 h incubation, Colo-205",[2]; [7],59.3 ± 3.6%
same,"Viability (%) at 10-5 M concentration, after 72 h incubation, EBC-1",[3]; [7],76.2 ± 13.7%
same,"Viability (%) at 10^−5 M Concentration, After 72 h Incubation",[4]; [8],105.1 ± 1.9%
same,Time to complete lysosomal degradation,[5],≤ 1 h
"COc1cccc2c1C(=O)c1c(O)c3c(c(O)c1C2=O)C[C@@](O)(C(C)=NOCC(=O)NCC(=O)N[C@@H](Cc1ccccc1)C(=O)N[C@@H](CC(C)C)C(=O)NCC(=O)NCCCC[C@H](NC(=O)CNC(=O)[C@H](CC(C)C)NC(=O)[C@H](Cc1ccccc1)NC(=O)CNC(=O)CON=C(C)[C@]1(O)Cc2c(O)c4c(c(O)c2[C@@H](O[C@H]2C[C@H](N)[C@H](O)[C@H](C)O2)C1)C(=O)c1c(OC)cccc1C4=O)C(=O)N[C@@H](CO)C(=O)N[C@@H](CCCCN)C(=O)N[C@@H](C)C(=O)N[C@@H](C)C(=O)N[C@@H](CCCCN)C(=O)N[C@@H](CC(N)=O)C(=O)O)C[C@@H]3O[C@H]1C[C@H](N)[C@H](O)[C@H](C)O1 [conjugate 5, Dau=Aoa-GFLG-K(Dau=Aoa-GFLG)SKAAKN-OH] ({Daunorubicin(13-NOCH2CO)}-GFLGK([Gly-Leu-Phe-Gly-Daunorubicin(13-NOCH2CO)])SKAAKN-OH)","Viability (%) at 10-5 M concentration, after 72 h incubation, A2058",[1]; [7],61.9 ± 11.6%
same,"Viability (%) at 10-5 M concentration, after 72 h incubation, Colo-205",[2]; [7],45.8 ± 2.6%
same,"Viability (%) at 10-5 M concentration, after 72 h incubation, EBC-1",[3]; [7],57.6 ± 11.1%
same,"Viability (%) at 10^−5 M Concentration, After 72 h Incubation",[4]; [8],31.3 ± 1.8%
same,Viability after 24 h,"[4]; PANC-1, impedimetry, 10^−5 M, 24 h (Figure 1A)",34%
same,Time to complete lysosomal degradation,[5],> 72 h
COc1cccc2c1C(=O)c1c(O)c3c(c(O)c1C2=O)C[C@@](O)(C(C)=NOCC(=O)N[C@@H](CO)C(=O)N[C@@H](CCCCN)C(=O)N[C@@H](C)C(=O)N[C@@H](C)C(=O)N[C@@H](CCCCN)C(=O)N[C@@H](CC(N)=O)C(=O)O)C[C@@H]3O[C@H]1C[C@H](N)[C@H](O)[C@H](C)O1 [conjugates 1] ({Daunorubicin(13-NOCH2CO)}-SKAAKN-OH),Speed of lysosomal degradation (in words),[5],very fast
Dau=Aoa-GFLG-K(Dau=Aoa-GFLG)SKAAKN-OH,fragment found,[6],"Dau=Aoa-G-OH, minor; also recorded: Dau=Aoa-GF-OH; also recorded: Dau=Aoa-GFL-OH; also recorded: H-K(Dau=Aoa-GFLG)SK-OH; also recorded: H-K(Dau=Aoa-GFLG)SKAA-OH; also recorded: H-K(Dau=Aoa-GFLG)SKAAKN-OH"
Dau=Aoa-GFLG-KSKAAKN-OH,fragment found,[6],"Dau=Aoa-GFL-OH; also recorded: Dau=Aoa-GFLGK-OH; also recorded: Dau=Aoa-GFLGKSK-OH, first_seen, 0 min; also recorded: Dau=Aoa-GFLGKSKAA-OH, first_seen, 0 min; also recorded: Dau=Aoa-G-OH, 30 min; also recorded: Dau=Aoa-GF-OH, major, 30 min"
Dau=Aoa-KSKAAKN-OH,fragment found,[6],"Dau=Aoa-K-OH, minor, 30 min; also recorded: Dau=Aoa-KS-OH, 15 min; also recorded: Dau=Aoa-KSK-OH"
Dau=Aoa-SKAAKN-OH,fragment found,[6],"Dau=Aoa-S-OH, 0 min; also recorded: Dau=Aoa-SK-OH, 0 min"
